Assay results published in publication PMC8976073 (Nature Communications, 2022).
Where a chain is given by its changes, count along the chain named.

Legend:
Experiment in all cases: Competition binding: inhibition of WK(FITC)YMVm binding to FPR2 (wild type and mutants), HEK293F cells
FPR2 [1] = target: T1, FPR2 (Homo sapiens, UniProt P25090, S211L); conditions: FPR2 Construct 2, mean ± SEM
T1 construct: expressed in transfected cells; host or cells: HEK293F cells, pTT5 vector
Procedure: (§1) The genes of wild-type FPR1 and FPR2 and mutants with a Flag tag at the N termini were cloned into pTT5 vector (Invitrogen) and expressed in HEK293F cells (Invitrogen). Cells were harvested 48 h post transfection with 1 μg ml^−1 plasmid. Cell-surface expression of the receptors was measured by mixing 10 μl cells with 15 μl of TBS buffer supplemented with 4% BSA, 20% (v/v) viability-staining solution 7-AAD (Invitrogen, Cat#00-6993-50), and 0.1% (v/v) anti-FLAG M2-FITC antibody (Sigma, Cat#F4049) at 4 °C for 20 min. After incubation, 175 μl of TBS buffer was added and the fluorescent signal was measured using a flow-cytometry reader (Guava easyCyte HT, Millipore). Then, the cells were washed and resuspended to a final concentration of 1 × 10^6 cells per ml in Hanks’ Balanced Salt Solution (HBSS) buffer supplemented with 0.5% bovine serum albumin (BSA) and 20 mM HEPES, pH 7.4.
(§2) The mean fluorescent intensity of each well was then read by the FCM reader. Total binding and nonspecific binding were measured in the absence and presence of the unlabeled ligand (200 μM WKYMVm), respectively. […] Mean fluorescent-intensity values were measured by flow cytometry. Data were analyzed using Prism 8.0 (GraphPad software).

FPR2 [2] = target: T2, FPR2 (Homo sapiens, UniProt P25090, M85K); conditions: FPR2 M85K, mean ± SEM
T2 construct: expressed in transfected cells; host or cells: HEK293F cells, pTT5 vector
T2 sequence (P25090 1-351 M85K): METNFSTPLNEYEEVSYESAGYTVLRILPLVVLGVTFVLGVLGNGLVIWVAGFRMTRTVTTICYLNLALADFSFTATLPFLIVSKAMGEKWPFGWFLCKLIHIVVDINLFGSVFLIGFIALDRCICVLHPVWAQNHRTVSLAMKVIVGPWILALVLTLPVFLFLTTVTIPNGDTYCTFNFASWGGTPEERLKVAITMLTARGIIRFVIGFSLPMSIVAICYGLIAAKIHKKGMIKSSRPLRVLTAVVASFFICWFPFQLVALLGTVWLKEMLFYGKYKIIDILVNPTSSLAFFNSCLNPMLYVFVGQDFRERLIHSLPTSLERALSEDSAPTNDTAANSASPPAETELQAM
Procedure: as §1, §2

FPR2 [3] = target: T3, FPR2 (Homo sapiens, UniProt P25090, E89A); conditions: FPR2 E89A, mean ± SEM
T3 construct: expressed in transfected cells; host or cells: HEK293F cells, pTT5 vector
T3 sequence (P25090 1-351 E89A): T2 sequence (P25090 1-351 M85K) with K85M, E89A
Procedure: as §1, §2

FPR2 [4] = target: T4, FPR2 (Homo sapiens, UniProt P25090, E89G); conditions: FPR2 E89G, mean ± SEM
T4 construct: expressed in transfected cells; host or cells: HEK293F cells, pTT5 vector
T4 sequence (P25090 1-351 E89G): T2 sequence (P25090 1-351 M85K) with K85M, E89G
Procedure: as §1, §2

FPR2 [5] = target: T5, FPR2 (Homo sapiens, UniProt P25090, L272W); conditions: FPR2 L272W, mean ± SEM
T5 construct: expressed in transfected cells; host or cells: HEK293F cells, pTT5 vector
T5 sequence (P25090 1-351 L272W): T2 sequence (P25090 1-351 M85K) with K85M, L272W
Procedure: as §1, §2

FPR2 [6] = target: T6, FPR2 (Homo sapiens, UniProt P25090, L198W); conditions: FPR2 L198W, mean ± SEM
T6 construct: expressed in transfected cells; host or cells: HEK293F cells, pTT5 vector
T6 sequence (P25090 1-351 L198W): T2 sequence (P25090 1-351 M85K) with K85M, L198W
Procedure: as §1, §2

T1 sequence (P25090 with tags, fused parts or gaps S211L): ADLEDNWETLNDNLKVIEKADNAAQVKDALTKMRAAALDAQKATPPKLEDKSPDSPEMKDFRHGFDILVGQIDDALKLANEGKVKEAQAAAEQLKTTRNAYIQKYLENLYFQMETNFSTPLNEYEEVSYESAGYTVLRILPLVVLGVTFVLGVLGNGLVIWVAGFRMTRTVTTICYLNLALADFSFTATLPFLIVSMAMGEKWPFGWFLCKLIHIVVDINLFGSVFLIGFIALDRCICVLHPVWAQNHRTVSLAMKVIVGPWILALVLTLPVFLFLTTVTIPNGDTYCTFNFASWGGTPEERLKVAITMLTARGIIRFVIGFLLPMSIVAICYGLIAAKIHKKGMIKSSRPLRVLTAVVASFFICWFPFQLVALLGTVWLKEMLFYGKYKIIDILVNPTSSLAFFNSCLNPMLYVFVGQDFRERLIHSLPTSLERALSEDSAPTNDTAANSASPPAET

- Ki (FPR2 [1]): 525 nM
- Ki (FPR2 [2]): 309 nM
- Ki (FPR2 [3]): 2240 nM
- Ki (FPR2 [4]): 575 nM
- Ki (FPR2 [5]): 479 nM
- Ki (FPR2 [6]): 646 nM
Compound: CC[C@H](C)[C@H](NC(=O)[C@H](CCC(=O)O)NC(=O)[C@H](CO)NC(=O)[C@@H](NC(=O)[C@H](CC(C)C)NC(=O)[C@H](CC(C)C)NC(=O)[C@H](CC(C)C)NC(=O)[C@H](CC(C)C)NC(=O)[C@H](CS)NC(=O)[C@H](CO)NC(=O)[C@H](Cc1ccccc1)NC(=O)CNC(=O)[C@H](CCCNC(=N)N)NC(=O)[C@@H]1CCCN1C(=O)[C@H](C)NC(=O)[C@H](CCSC)NC=O)[C@@H](C)O)C(=O)N[C@@H](CC(=O)O)C(=O)N[C@@H](CC(C)C)C(=O)N1CCC[C@H]1C(=O)N[C@H](C(=O)N[C@@H](CCCCN)C(=O)N[C@@H](CCCNC(=N)N)C(=O)N[C@@H](CCCNC(=N)N)C(=O)N[C@@H](C)C(=O)O)C(C)C [fHN, N-formyl humanin]
